Reference: patent US20130030017A1, “QUINOLINE DERIVATIVES AS ANTIBACTERIAL AGENTS” (priority 2005, published 2013)
≈ marks a conversion by molar mass, not a printed value.

What was measured:
[1] = test system: Streptococcus pyogens (ATCC8668); assay: Microtitre plate assay, IC90 determination (SPY 8668); type: cell-based; settings: 90% inhibitory concentration for bacterial growth, 37° C., resazurin fluorescence; for IC90 SPY 8668: 24 hours; for IC90: Streptococcus, ATCC8668, 24 h
Experimental: (§1) The bacteria used in this study were grown overnight in flasks containing 100 ml Mueller-Hinton Broth (Becton Dickinson—cat. no. 275730) in sterile de-ionized water, with shaking, at 37° C. Stocks (0.5 ml/tube) were stored at −70° C. until use. Bacteria titrations were performed in microtiter plates and colony forming units (CFUs) were determined. In general, an inoculum level of approximately 100 CFUs was used for susceptibility testing.
(§2) Flat-bottom, sterile 96-well plastic microtiter plates were filled with 180 μl of sterile deionized water, supplemented with 0.25% BSA. Subsequently, stock solutions (7.8× final test concentration) of compounds were added in 45 μl volumes in column 2 Serial five-fold dilutions (45 μl in 180 μl) were made directly in the microtiter plates from column 2 to reach column 11. Untreated control samples with (column 1) and without (column 12) inoculum were included in each microtiter plate. Depending on the bacteria type, approximately 10 to 60 CFU per well of bacteria inoculum (100 TCID50), in a volume of 100 μl in 2.8× Mueller-Hinton broth medium, was added to the rows A to H, except column 12. The same volume of broth medium without inoculum was added to column 12 in row A to H. The cultures were incubated at 37° C. for 24 hours under a normal atmosphere (incubator with open air valve and continuous ventilation). At the end of incubation, one day after inoculation, the bacterial growth was quantitated fluorometrically. Therefore resazurin (0.6 mg/ml) was added in a volume of 20 μl to all wells 3 hours after inoculation, and the plates were re-incubated overnight. A change in colour from blue to pink indicated the growth of bacteria. The fluorescence was read in a computer-controlled fluorometer (Cytofluor Biosearch) at an excitation wavelength of 530 nm and an emission wavelength of 590 nm. The % growth inhibition achieved by the compounds was calculated according to standard methods. The IC90 (expressed in μg/ml) was defined as the 90% inhibitory concentration for bacterial growth.

[2] = test system: Staphylococcus aureus (ATCC29213); assay: Microtitre plate assay, IC90 determination (STA 29213); type: cell-based; settings: 90% inhibitory concentration for bacterial growth, 37° C., resazurin fluorescence; for IC90 STA 29213: 24 hours; for IC90: Staphylococcus aureus, ATCC29213, 24 h
Experimental: as §1, §2

[3] = test system: Enterococcus faecalis (ATCC29212); assay: Microtitre plate assay, IC90 determination (EFA 29212); type: cell-based; settings: 90% inhibitory concentration for bacterial growth, 37° C., resazurin fluorescence; for IC90 EFA 29212: 24 hours
Experimental: as §1, §2

[4] = test system: Streptococcus pneumoniae (ATCC6305); assay: Microtitre plate assay, IC90 determination (SPN 6305); type: cell-based; settings: 90% inhibitory concentration for bacterial growth, 37° C., resazurin fluorescence; for IC90 SPN 6305: 24 hours; for IC90: Streptococcus pneumoniae, ATCC6305, 24 h
Experimental: as §1, §2

[5] = test system: Pseudomonas aeruginosa (ATCC27853); assay: Microtitre plate assay, IC90 determination (PAE 27853); type: cell-based; settings: 90% inhibitory concentration for bacterial growth, 37° C., 24 hours, resazurin fluorescence
Experimental: as §1, §2

[6] = test system: methicilline resistant Staphylococcus aureus (MRSA) (a clinical isolate from the University of Antwerp); assay: Microtitre plate assay, IC90 determination (STA RMETH); type: cell-based; settings: 90% inhibitory concentration for bacterial growth, 37° C., 24 hours, resazurin fluorescence
Experimental: as §1, §2

| Compound | IC90 SPY 8668 [1] [µg/mL] | melting point [°C] | IC90 STA 29213 [2] [µg/mL] | IC90 EFA 29212 [3] [µg/mL] | IC90 SPN 6305 [4] [µg/mL] | IC90 PAE 27853 [5] [µg/mL] | IC90 [2] [µg/mL] | IC90 [4] [µg/mL] | IC90 [1] [µg/mL] | IC90 ([3]; Enterococcus faecalis, ATCC29212, 24 h) [µg/mL] | IC90 [6] [µg/mL] | IC90 STA RMETH [6] [µg/mL] |
| --- | --- | --- | --- | --- | --- | --- | --- | --- | --- | --- | --- | --- |
| COc1ccc(CCC(O)(CCN(C)C)C(c2ccc(Cl)cc2)c2cc3cc(Br)ccc3nc2OC)cc1 (stereo not drawn) [Compound 21] | 1.9 (≈ 3.18 µM) | 142 | 1.9 (≈ 3.18 µM) | 1.9 (≈ 3.18 µM) | 2.1 (≈ 3.51 µM) | 1.9 (≈ 3.18 µM) | – | – | – | – | – | – |
| CSc1nc2ccc(C)cc2cc1C(c1ccccc1)C(O)(CCc1ccccc1)CCN(C)C (stereo not drawn) [Compound 29] | – | 180 | 48.5 (≈ 100 µM) | – | 7.7 (≈ 15.9 µM) | – | – | – | – | – | – | – |
| CSc1nc2ccc(Br)cc2cc1C(c1ccc(Cl)cc1)C(O)(CCc1ccccc1)CCN(C)C (stereo not drawn) [Compound 32] | – | 222 | 9.3 (≈ 15.9 µM) | – | 2.1 (≈ 3.6 µM) | – | – | – | – | – | – | – |
| COc1nc2ccc(Br)cc2cc1C(c1ccccc1)C(O)(CCc1ccc(F)cc1)CCN1CCCCC1 (stereo not drawn) [Compound 34] | – | 194 | 59.2 (≈ 100 µM) | – | 9.4 (≈ 15.9 µM) | – | – | – | – | – | – | – |
| CNCCC(O)(CCc1ccc(F)cc1)C(c1ccccc1)c1cc2ccccc2nc1OC (stereo not drawn) [Compound 37] | – | 134 | – | – | – | – | 2.9 (≈ 6.32 µM) | 0.3 (≈ 0.654 µM) | – | – | – | – |
| CNCCC(O)(CCc1ccc(F)cc1)C(c1ccccc1)c1cc2cc(Br)ccc2nc1OC (stereo not drawn) [Compound 39] | – | 140 | – | – | – | – | 1.7 (≈ 3.16 µM) | 0.3 (≈ 0.558 µM) | – | – | – | – |
| COc1nc2ccc(Br)cc2cc1C(c1ccccc1)C(O)(CCN(C)C)Cc1cccc2ccccc12 (stereo not drawn) [Compound 41] | – | 112 | 57.0 (≈ 100 µM) | – | – | – | – | 2.3 (≈ 4.04 µM) | – | – | – | – |
| CCOCCOCCOc1nc2ccc(Br)cc2cc1C(c1ccccc1)C(O)(CCc1ccccc1)CCN(C)C (stereo not drawn) [Compound 43] | – | 94 | 10.1 (≈ 15.9 µM) | – | – | 10.1 (≈ 15.9 µM) | – | 2.3 (≈ 3.62 µM) | 10.1 (≈ 15.9 µM) | 10.1 (≈ 15.9 µM) | – | – |
| COc1ccc(C(c2cc3cc(Br)ccc3nc2OC)C(O)(CCc2ccccc2)CCN(C)C)cc1 (stereo not drawn) [Compound 74] | 1.8 (≈ 3.19 µM) | – | 1.8 (≈ 3.19 µM) | 1.8 (≈ 3.19 µM) | 1.8 (≈ 3.19 µM) | 1.8 (≈ 3.19 µM) | – | – | – | – | 12.6 (≈ 22.4 µM) | – |

Second part, led by results:

| IC90 SPY 8668 [1] [µg/mL] | melting point [°C] | IC90 STA 29213 [2] [µg/mL] | IC90 EFA 29212 [3] [µg/mL] | IC90 SPN 6305 [4] [µg/mL] | IC90 PAE 27853 [5] [µg/mL] | IC90 [2] [µg/mL] | IC90 [4] [µg/mL] | IC90 [1] [µg/mL] | IC90 ([3]; Enterococcus faecalis, ATCC29212, 24 h) [µg/mL] | Compound | IC90 [6] [µg/mL] | IC90 STA RMETH [6] [µg/mL] |
| --- | --- | --- | --- | --- | --- | --- | --- | --- | --- | --- | --- | --- |
| – | – | 3.9 (≈ 7.12 µM) | 1.7 (≈ 3.1 µM) | – | 1.7 (≈ 3.1 µM) | – | 0.8 (≈ 1.46 µM) | 1.7 (≈ 3.1 µM) | – | COc1nc2ccc(Br)cc2cc1C(c1ccc(C)cc1)C(O)(CCc1ccccc1)CCN(C)C (stereo not drawn) [Compound 65] | 10.9 (≈ 19.9 µM) | – |
| 1.7 (≈ 3.1 µM) | – | 1.7 (≈ 3.1 µM) | 9.7 (≈ 17.7 µM) | 0.8 (≈ 1.46 µM) | 43.5 (≈ 79.4 µM) | – | – | – | – | COc1nc2ccc(Br)cc2cc1C(c1ccc(C)cc1)C(O)(CCc1ccccc1)CCN(C)C (stereo not drawn) [Compound 66] | – | 12.3 (≈ 22.5 µM) |
| 4.0 (≈ 7.04 µM) | – | – | 1.8 (≈ 3.17 µM) | 0.5 (≈ 0.88 µM) | 1.8 (≈ 3.17 µM) | 1.8 (≈ 3.17 µM) | – | – | – | COc1nc2ccc(Br)cc2cc1C(c1ccc(Cl)cc1)C(O)(CCc1ccccc1)CCN(C)C (stereo not drawn) [Compound 69] | 12.7 (≈ 22.4 µM) | – |
| 45.1 (≈ 79.4 µM) | – | 1.8 (≈ 3.17 µM) | 56.8 (≈ 100 µM) | 1.8 (≈ 3.17 µM) | 45.1 (≈ 79.4 µM) | – | – | – | – | COc1nc2ccc(Br)cc2cc1C(c1ccc(Cl)cc1)C(O)(CCc1ccccc1)CCN(C)C (stereo not drawn) [Compound 70] | – | 12.7 (≈ 22.4 µM) |
